Assay results as given in patent publication US20250304939A1, “TAILORED ANTI-FUNGAL DRUGS AND TOOLS TO DIAGNOSE INVASIVE FUNGAL INFECTIONS” (priority 2022, published 2025).
Where a chain is given by its changes, count along the chain named.

Tests used:
A. flavus = experiment: Biotin-tagged peptide binding to heat-inactivated conidia, flow cytometry; set-up: species or system Aspergillus flavus; conditions: 5 μg/ml
Protocol: (§1) A 30 amino acid peptide comprising the KLMAR sequence was generated with an N-terminal biotin-tag. […] 5 μg/ml of the N-term biotin-tagged peptides were incubated with 1×10^7 heat-inactivated conidia/ml from different Aspergillus species and from fungi belonging to the Mucorales order. The peptide binding was subsequently detected with a FITC-coupled streptavidin using flow cytometry (Beckman Coulter, Gallios).

A. niger = experiment: as above; set-up: species or system Aspergillus niger; conditions: 5 μg/ml
Protocol: as §1

A. terreus = experiment: as above; set-up: species or system Aspergillus terreus; conditions: 5 μg/ml
Protocol: as §1

HMEC-1 cells = experiment: Peptide binding to human cells, flow cytometry; conditions: 5 μg/ml; 1×10^7 cells/ml
Protocol: (§2) 5 μg/ml of the N-term biotin-tagged MASP-1 peptide was incubated with THP-1 and HMEC-1 cells (1×10^7 cells/ml). The peptide binding was subsequently detected with a FITC-coupled streptavidin using flow cytometry (Beckman Coulter, Gallios).

THP-1 cells = experiment: Peptide binding to human cells, flow cytometry; conditions: 5 μg/ml; 1×10^7 cells/ml
Protocol: as §2

Mucor circinelloides = experiment: Biotin-tagged peptide binding to heat-inactivated conidia, flow cytometry; conditions: 5 μg/ml
Protocol: as §1

Lichtemia corymbifera = experiment: as above; conditions: 5 μg/ml
Protocol: as §1

Rhizopus arrhizus = experiment: as above; conditions: 5 μg/ml
Protocol: as §1

A. fumigatus conidia [1] = experiment: Biotin-tagged 30 amino acid peptide binding to heat-inactivated conidia, FITC-streptavidin flow cytometry; set-up: species or system Aspergillus fumigatus; conditions: for peptide binding to A. fumigatus conidia: 5 μg/ml N-term biotin-tagged peptide, 1×10^7 heat-inactivated conidia/ml
Protocol: as §1
Three 30 amino acid peptides from the CCP2 domain of MASP-1 were generated with an N-terminal biotin-tag. CCP2 Ctrl.Pep1: […], CCP2 Ctrl.Pep2: […], CCP2 Ctrl.Pep3: […]. 5 and 10 μg/ml of the N-term biotin-tagged peptides were incubated with 1×10^7 heat-inactivated A. fumigatus conidia/ml and the peptide binding was detected with a FITC-coupled streptavidin using flow cytometry (BD, Celesta).
5 μg/ml of the N-term biotin-tagged peptides with C→S mutations at position 7 (C7S), position 11 (C11S) and both positions (C7S+C11S) were incubated with 1×10^7 heat-inactivated A. fumigatus conidia/ml. The peptide binding was subsequently detected with a FITC-coupled streptavidin using flow cytometry (BD, Celesta).
5 μg/ml of the N-term biotin-tagged MASP-1 peptide were incubated with 1×10^7 heat-inactivated A. fumigatus conidia/ml in barbital buffer (containing Ca2+) with or without 20 mM EDTA that chelates the calcium. The peptide binding was subsequently detected with a FITC-coupled streptavidin using flow cytometry (Beckman Coulter, Gallios).
The binding of the MASP-1 peptide was compared to the binding of a MASP-3 peptide covering the same protein region and thus having partly overlapping amino acid sequences. MASP-1 peptide: […] (SEQ ID NO: 1). MASP-3 peptide: […] (SEQ ID NO: 3). 5 μg/ml of the N-term biotin-tagged peptides were incubated with 1×10^7 heat-inactivated A. fumigatus conidia/ml. The peptide binding was subsequently detected with a FITC-coupled streptavidin using flow cytometry (Beckman Coulter, Gallios).

A. fumigatus conidia [2] = experiment: rMASP-1 (wild-type/mutated) binding to heat-inactivated conidia, flow cytometry; set-up: species or system Aspergillus fumigatus; conditions: 5 μg/ml, 1×10^7 heat-inactivated conidia/ml
Protocol: A. fumigatus conidia were heat-inactivated (15 min 121° C.) to eliminate contamination in the laboratory. 1×10^7 conidia/ml were incubated with 5 μg/ml recombinant wild-type MASP-1 (^444KLMAR^448) or mutated rMASP-1 (^444DDDDK^448). The binding of MASP-1 was detected using 10 μg/ml of a pan anti-MASP-1/-3/MAP-1 monoclonal antibody 8B3 followed by a FITC-conjugated goat anti-mouse polyclonal antibody. Binding was measured as the mean fluorescence intensity using flow cytometry (Beckman Coulter, Gallios).
The experiment in this example 2A was performed using the method as described in example 2.

Aspergillus fumigatus = experiment: Recombinant MASP-1 binding to A. fumigatus growth stages, fluorescence microscopy; conditions: 5 μg/ml, resting conidia, swollen conidia, germ tubes and hyphae
Protocol: MASP-1 binding was tested on the different growth stages of A. fumigatus. First, the A. fumigatus conidia were incubated on microscopy glass slides for 0, 4, 8 and 16 hours to obtain resting conidia, swollen conidia, germ tubes and hyphae. Recombinant MASP-1 was then added in a concentration of 5 μg/ml and binding was detected with a pan anti-MASP-1/-3/MAP-1 monoclonal antibody 8B3 and Alexa fluor 488-coupled goat anti-mouse antibody. […] This is very surprising since until now, MASP-1 is known only to interact with endogenous pattern recognition molecules (PRMs) and not so-called pathogen-associated molecular patterns (PAMPs).
MASP-1, a serine protease from the complement system, binds directly to various pathogenic fungi, for example, Aspergillus fumigatus and this knowledge can be utilized to design a targeted antifungal compound. MASP-1 binding was tested on the different growth stages of A. fumigatus. First, the A. fumigatus conidia were incubated on microscopy glass slides for 0, 4, 8 and 16 hours to obtain resting conidia, swollen conidia, germ tubes and hyphae. Recombinant MASP-1 was then added in a concentration of 5 μg/ml and binding was detected with a pan anti-MASP-1/-3/MAP-1 monoclonal antibody 8B3 and Alexa fluor 488-coupled goat anti-mouse antibody.

Molecule: MASP-1 peptide: 30 amino acid MASP-1 peptide GRSLPTCLPVCGLPKFSRKLMARIFNGRPA (SEQ ID NO: 1)
- peptide binding to A. flavus conidia (A. flavus): successfully bound
- peptide binding to A. niger conidia (A. niger): successfully bound
- peptide binding to A. terreus conidia (A. terreus): successfully bound
- peptide binding to HMEC-1 endothelial cell line (HMEC-1 cells): did not show any binding
- peptide binding to THP-1 monocytic cell line (THP-1 cells): did not show any binding
- peptide binding to Mucor circinelloides conidia (Mucor circinelloides): successfully bound
- peptide binding to Lichtemia corymbifera conidia (Lichtemia corymbifera): successfully bound
- peptide binding to Rhizopus arrhizus conidia (Rhizopus arrhizus): successfully bound
- peptide binding to A. fumigatus conidia (A. fumigatus conidia [1]): successfully bound
- peptide binding to A. fumigatus conidia with calcium (A. fumigatus conidia [1]; 5 μg/ml, barbital buffer (containing Ca2+) without EDTA): bound equally well
- peptide binding to A. fumigatus conidia without calcium (A. fumigatus conidia [1]; 5 μg/ml, barbital buffer with 20 mM EDTA): bound equally well
- peptide binding to A. fumigatus conidia (median fluorescence intensity), CCP2 domain comparison (A. fumigatus conidia [1]; 5 and 10 μg/ml, heat-inactivated conidia, BD Celesta): bound

Molecule: MASP-3 peptide: 30 aa MASP-3 peptide covering the same protein region, GRSLPTCLPECGQPSRSLPSLVKRIIGGRN (SEQ ID NO: 3) (listed as Homo sapiens) [reference compound]
- peptide binding to HMEC-1 endothelial cell line (HMEC-1 cells): Neither of the 30 aa MASP peptides bind
- peptide binding to THP-1 monocytic cell line (THP-1 cells): Neither of the 30 aa MASP peptides bind
- peptide binding to A. fumigatus conidia (A. fumigatus conidia [1]): did not bind

B1: wild-type rMASP-1 (^444KLMAR^448): recombinant wild-type MASP-1, a serine protease from the complement system, containing 444KLMAR448 (protein, UniProt P48740 20-699, looked up)
Mannan-binding lectin serine …: HTVELNNMFGQIQSPGYPDSYPSDSEVTWNITVPDGFRIKLYFMHFNLESSYLCEYDYVKVETEDQVLATFCGRETTDTEQTPGQEVVLSPGSFMSITFRSDFSNEERFTGFDAHYMAVDVDECKEREDEELSCDHYCHNYIGGYYCSCRFGYILHTDNRTCRVECSDNLFTQRTGVITSPDFPNPYPKSSECLYTIELEEGFMVNLQFEDIFDIEDHPEVPCPYDYIKIKVGPKVLGPFCGEKAPEPISTQSHSVLILFHSDNSGENRGWRLSYRAAGNECPELQPPVHGKIEPSQAKYFFKDQVLVSCDTGYKVLKDNVEMDTFQIECLKDGTWSNKIPTCKIVDCRAPGELEHGLITFSTRNNLTTYKSEIKYSCQEPYYKMLNNNTGIYTCSAQGVWMNKVLGRSLPTCLPVCGLPKFSRKLMARIFNGRPAQKGTTPWIAMLSHLNGQPFCGGSLLGSSWIVTAAHCLHQSLDPEDPTLRDSDLLSPSDFKIILGKHWRLRSDENEQHLGVKHTTLHPQYDPNTFENDVALVELLESPVLNAFVMPICLPEGPQQEGAMVIVSGWGKQFLQRFPETLMEIEIPIVDHSTCQKAYAPLKKKVTRDMICAGEKEGGKDACAGDSGGPMVTLNRERGQWYLVGTVSWGDDCGKKDRYGVYSYIHHNKDWIQRVTGVRN
- binding of rMASP-1 to A. fumigatus conidia (mean fluorescence intensity) (A. fumigatus conidia [2]): binds
- recombinant MASP-1 binding to A. fumigatus growth stages (Aspergillus fumigatus): binding was detected for all growth stages

B2: zymogen mutated rMASP-1: zymogen version of the mutated rMASP-1 (444DDDDK448) (protein, UniProt P48740 20-699, looked up, variant K444D L445D M446D A447D R448K)
pro-form: B1 Mannan-binding lectin serine … with K425D, L426D, M427D, A428D, R429K
modifications: pro-form zymogen, enterokinase site
- binding of rMASP-1 to A. fumigatus conidia (mean fluorescence intensity) (A. fumigatus conidia [2]): Neither the active nor zymogen mutated rMASP-1 (44^4DDDDK^448) bound

B3: mutated rMASP-1 (^444DDDDK^448): recombinant MASP-1 in which 444KLMAR448 was substituted by DDDDK (SEQ ID NO: 4), activated version (protein, UniProt P48740 20-699, looked up, variant K444D L445D M446D A447D R448K)
Mannan-binding lectin serine …: B1 Mannan-binding lectin serine … with K425D, L426D, M427D, A428D, R429K
modifications: activated
- binding of rMASP-1 to A. fumigatus conidia (mean fluorescence intensity) (A. fumigatus conidia [2]): did not bind
- binding of rMASP-1 to A. fumigatus conidia (mean fluorescence intensity) (A. fumigatus conidia [2]; listed as active mutated rMASP-1): Neither the active nor zymogen mutated rMASP-1 (44^4DDDDK^448) bound
